# Measured values published in the supplement of paper PMC10307832.
# Compound: COCC[n+]1c2c(n(Cc3cnccn3)c1C)C(=O)c1ccccc1C2=O [YM155] + CS(=O)(=O)N1CCN(Cc2cc3nc(-c4cccc5[nH]ncc45)nc(N4CCOCC4)c3s2)CC1 [Pictilisib] (partner 1 µM)
# Assay: relative viability (nuclei count vs DMSO), 5 days (fraction); higher = more cells survive
# Conditions: first compound 0.002 µM
# Summary of the method: (§1)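 Lung cancer cell lines in 1536-well plates got either a single drug or a fixed anchor-drug dose together with five library-drug doses (not always all listed) in √10 steps, by pin tool, on the day after seeding. Nuclei were counted after 5 days, and relative viability is the treated-to-vehicle ratio of nuclei counts. Values are medians of duplicate plates.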
row,Cell Line,relative viability
1,NCI-H1395,0.587
2,HCC-366,0.376
3,NCI-H1915,0.904
4,NCI-H2347,0.574
5,LCLC-103H,0.595
6,ABC-1,0.637
7,NCI-H1734,0.414
8,HCC-78,0.206
9,HCC-15,0.612
10,HARA,0.371
11,NCI-H1975,0.273
12,NCI-H1944,0.358
13,NCI-H2126,0.427
14,EMC-BAC-2,0.545
15,NCI-H2170,0.296
16,NCI-H358,0.254
17,LK-2,0.565
18,HOP-62,0.79
19,PC-14,0.648
20,NCI-H1993,0.697
21,NCI-H2405,0.407
22,NCI-H3122,0.601
23,A-427,0.592
24,LOU-NH91,0.495
25,NCI-H1666,0.455
26,NCI-H23,0.518
27,NCI-H838,0.386
28,NCI-H322M,0.49
29,NCI-H441,0.539
30,NCI-H727,0.397

# Same assay, conditions: first compound 0.006325 µM
row,Cell Line,relative viability
1,NCI-H1395,0.546
2,HCC-366,0.124
3,NCI-H1915,0.834
4,NCI-H2347,1.03
5,LCLC-103H,0.654
6,ABC-1,0.594
7,NCI-H1734,0.454
8,HCC-78,0.225
9,HCC-15,0.687
10,HARA,0.397
11,NCI-H1975,0.268
12,NCI-H1944,0.339
13,NCI-H2126,0.525
14,EMC-BAC-2,0.533
15,NCI-H2170,0.357
16,NCI-H358,0.349

row,Cell Line,relative viability
1,LK-2,0.541
2,HOP-62,0.63
3,PC-14,0.717
4,NCI-H1993,0.733
5,NCI-H2405,0.316
6,NCI-H3122,0.615
7,A-427,0.736
8,LOU-NH91,0.519
9,NCI-H596,0.387
10,NCI-H23,0.459
11,NCI-H838,0.521
12,NCI-H322M,0.553
13,NCI-H1793,0.303
14,NCI-H441,0.527
15,NCI-H727,0.533

# Same assay, conditions: first compound 0.02 µM
row,Cell Line,relative viability
1,NCI-H1395,0.622
2,HCC-366,0.125
3,NCI-H1915,0.88
4,NCI-H2347,0.829
5,LCLC-103H,0.668
6,ABC-1,0.341
7,NCI-H1734,0.491
8,HCC-78,0.2
9,HCC-15,0.723
10,HARA,0.533
11,NCI-H1975,0.256
12,NCI-H1944,0.363
13,NCI-H2126,0.466
14,EMC-BAC-2,0.556
15,NCI-H2170,0.349
16,NCI-H358,0.332

row,Cell Line,relative viability
1,LK-2,0.475
2,HOP-62,0.818
3,PC-14,0.693
4,NCI-H1993,0.798
5,NCI-H2405,0.395
6,NCI-H3122,0.606
7,A-427,0.802
8,LOU-NH91,0.578
9,NCI-H596,0.378
10,NCI-H1666,0.404
11,NCI-H23,0.484
12,NCI-H838,0.536
13,NCI-H322M,0.559
14,NCI-H1793,0.318
15,NCI-H441,0.47
16,NCI-H727,0.446

# Same assay, conditions: first compound 0.06325 µM
row,Cell Line,relative viability
1,NCI-H1395,0.673
2,HCC-366,0.134
3,NCI-H1915,0.667
4,NCI-H2347,0.633
5,LCLC-103H,0.508
6,ABC-1,0.197
7,NCI-H1734,0.533
8,HCC-78,0.276
9,HCC-15,0.614
10,HARA,0.461
11,NCI-H1975,0.224
12,NCI-H1944,0.379
13,NCI-H2126,0.54
14,EMC-BAC-2,0.484
15,NCI-H2170,0.329
16,NCI-H358,0.249

row,Cell Line,relative viability
1,LK-2,0.53
2,HOP-62,0.749
3,PC-14,0.536
4,NCI-H1993,0.789
5,NCI-H2405,0.312
6,NCI-H3122,0.506
7,A-427,0.705
8,LOU-NH91,0.535
9,NCI-H596,0.431
10,NCI-H1666,0.484
11,NCI-H23,0.222
12,NCI-H838,0.299
13,NCI-H322M,0.556
14,NCI-H1793,0.211
15,NCI-H441,0.381
16,NCI-H727,0.375

# Compound: COCC[n+]1c2c(n(Cc3cnccn3)c1C)C(=O)c1ccccc1C2=O [YM155] + Nc1ncn([C@H]2C[C@H](O)[C@@H](CO)O2)c(=O)n1 [Decitabine] (partner 2 µM)
# Assay: as above
# Conditions: first compound 0.002 µM
# Summary of the method: as §1
row,Cell Line,relative viability
1,NCI-H1395,0.715
2,HCC-366,0.358
3,NCI-H1915,0.277
4,NCI-H2347,0.64
5,LCLC-103H,0.747
6,NCI-H1734,0.474
7,HCC-78,0.647
8,HCC-15,0.634
9,NCI-H1975,0.344
10,NCI-H1944,0.416
11,NCI-H2126,0.53
12,EMC-BAC-2,1.01
13,NCI-H2170,0.506
14,NCI-H358,0.257
15,LK-2,0.29
16,HOP-62,0.221
17,PC-14,0.19
18,NCI-H1993,0.607
19,NCI-H2405,0.711
20,NCI-H3122,0.428
21,A-427,0.525
22,LOU-NH91,0.766
23,NCI-H596,0.886
24,NCI-H1666,0.749
25,NCI-H838,0.423
26,NCI-H322M,0.689
27,NCI-H1793,0.988
28,NCI-H441,0.277
29,NCI-H727,0.871

# Same assay, conditions: first compound 0.006325 µM
row,Cell Line,relative viability
1,NCI-H1395,0.689
2,HCC-366,0.366
3,NCI-H1915,0.256
4,NCI-H2347,0.612
5,LCLC-103H,0.735
6,ABC-1,0.84
7,NCI-H1734,0.525
8,HCC-78,0.751
9,HCC-15,0.627
10,HARA,0.566
11,NCI-H1975,0.338
12,NCI-H1944,0.395
13,NCI-H2126,0.624
14,EMC-BAC-2,1.05
15,NCI-H2170,0.508
16,NCI-H358,0.2

row,Cell Line,relative viability
1,LK-2,0.14
2,HOP-62,0.242
3,PC-14,0.223
4,NCI-H1993,0.644
5,NCI-H2405,0.7
6,NCI-H3122,0.432
7,A-427,0.567
8,LOU-NH91,0.812
9,NCI-H596,1
10,NCI-H1666,0.671
11,NCI-H23,0.278
12,NCI-H838,0.471
13,NCI-H322M,0.722
14,NCI-H1793,0.485
15,NCI-H441,0.243
16,NCI-H727,1.01

# Same assay, conditions: first compound 0.02 µM
row,Cell Line,relative viability
1,NCI-H1395,0.736
2,HCC-366,0.345
3,NCI-H1915,0.264
4,NCI-H2347,0.648
5,LCLC-103H,0.731
6,ABC-1,0.383
7,NCI-H1734,0.468
8,HCC-78,0.739
9,HCC-15,0.704
10,HARA,0.578
11,NCI-H1975,0.423
12,NCI-H1944,0.415
13,NCI-H2126,0.59
14,EMC-BAC-2,0.948
15,NCI-H2170,0.42
16,NCI-H358,0.199

row,Cell Line,relative viability
1,LK-2,0.341
2,HOP-62,0.235
3,PC-14,0.2
4,NCI-H1993,0.597
5,NCI-H2405,0.644
6,NCI-H3122,0.482
7,A-427,0.571
8,LOU-NH91,0.852
9,NCI-H596,1.02
10,NCI-H1666,0.78
11,NCI-H23,0.291
12,NCI-H838,0.399
13,NCI-H322M,0.7
14,NCI-H1793,0.61
15,NCI-H441,0.248
16,NCI-H727,0.867

# Same assay, conditions: first compound 0.06325 µM
row,Cell Line,relative viability
1,NCI-H1395,0.776
2,HCC-366,0.316
3,NCI-H1915,0.267
4,NCI-H2347,0.539
5,LCLC-103H,0.716
6,ABC-1,0.308
7,NCI-H1734,0.446
8,HCC-78,0.741
9,HCC-15,0.658
10,HARA,0.57
11,NCI-H1975,0.353
12,NCI-H1944,0.453
13,NCI-H2126,0.6
14,EMC-BAC-2,0.651
15,NCI-H2170,0.516
16,NCI-H358,0.22

row,Cell Line,relative viability
1,LK-2,0.362
2,HOP-62,0.214
3,PC-14,0.161
4,NCI-H1993,0.439
5,NCI-H2405,0.397
6,NCI-H3122,0.486
7,A-427,0.466
8,LOU-NH91,0.831
9,NCI-H596,1.04
10,NCI-H1666,0.726
11,NCI-H23,0.363
12,NCI-H838,0.383
13,NCI-H322M,0.753
14,NCI-H1793,0.497
15,NCI-H441,0.189
16,NCI-H727,0.857

# Compound: COCC[n+]1c2c(n(Cc3cnccn3)c1C)C(=O)c1ccccc1C2=O [YM155] + NC(=O)Nc1cc(-c2cccc(F)c2)sc1C(=O)N[C@H]1CCCNC1 [AZD7762] (partner 0.2 µM)
# Assay: as above
# Conditions: first compound 0.002 µM
# Summary of the method: as §1
row,Cell Line,relative viability
1,NCI-H1395,0.351
2,HCC-366,0.315
3,NCI-H1915,0.728
4,NCI-H2347,0.659
5,LCLC-103H,0.752
6,ABC-1,0.66
7,NCI-H1734,0.489
8,HCC-78,0.612
9,HCC-15,0.661
10,NCI-H1975,0.726
11,NCI-H1944,0.619
12,NCI-H2126,0.995
13,EMC-BAC-2,1.04
14,NCI-H2170,0.873
15,LK-2,0.445
